Values joined by “and” are separate entries in the source; they are usually repeats but may differ in a detail not shown here. Equal values may be shown once. Toxic doses and inconclusive results are not listed.

In the test the test system is L1210 leukemia ip in BDF1 mice, survival T/C. Nature of the test: NCI In Vivo Anticancer Drug Screen. Data for tumor model L1210 Leukemia (intraperitoneal) in B6D2F1 (BDF1) mice. As to conditions: endpoint: mean survival time, higher = longer survival. In short, it runs like this:
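Each compound was tested against a transplantable tumor grown in mice. The endpoint was survival, with treated animals benchmarked against vehicle controls as a simple ratio.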

[1] abbreviates: dose: 100.0 mg/kg/injection, schedule: Q04DX002 (ip), vehicle: Klucel (hydroxypropylcellulose) (HPC).
Setting [2] is: dose: 200.0 mg/kg/injection, schedule: Q04DX002 (ip), vehicle: Klucel (hydroxypropylcellulose) (HPC).
Where [3] appears, read: dose: 400.0 mg/kg/injection, schedule: Q04DX002 (ip), vehicle: Klucel (hydroxypropylcellulose) (HPC).
Where [4] appears, read: dose: 50.0 mg/kg/injection, schedule: Q01DX001 (ip), vehicle: carboxymethylcellulose (CMC).
Setting [5] is: dose: 100.0 mg/kg/injection, schedule: Q01DX001 (ip), vehicle: carboxymethylcellulose (CMC).
Setting [6] is: dose: 100.0 mg/kg/injection, schedule: Q01DX001 (ip), vehicle: saline.
[7] abbreviates: dose: 100.0 mg/kg/injection, schedule: Q01DX009 (ip), vehicle: saline with Tween-80.
Setting [8] is: dose: 100.0 mg/kg/injection, schedule: Q04DX003 (ip), vehicle: saline.
Setting [9] is: dose: 200.0 mg/kg/injection, schedule: Q01DX001 (ip), vehicle: saline.
The mark [10] stands for this setting: dose: 200.0 mg/kg/injection, schedule: Q01DX009 (ip), vehicle: saline with Tween-80.
Setting [11] is: dose: 200.0 mg/kg/injection, schedule: Q04DX003 (ip), vehicle: saline.
Where [12] appears, read: dose: 400.0 mg/kg/injection, schedule: Q01DX001 (ip), vehicle: saline.
The mark [13] stands for this setting: dose: 400.0 mg/kg/injection, schedule: Q01DX009 (ip), vehicle: saline with Tween-80.
Where [14] appears, read: dose: 400.0 mg/kg/injection, schedule: Q04DX003 (ip), vehicle: saline.
Setting [15] is: dose: 100.0 mg/kg/injection, schedule: Q04DX003 (ip), vehicle: saline with Tween-80.
[16] abbreviates: dose: 400.0 mg/kg/injection, schedule: Q04DX003 (ip), vehicle: saline with Tween-80.
Setting [17] is: dose: 100.0 mg/kg/injection, schedule: Q01DX009 (ip), vehicle: Klucel (hydroxypropylcellulose) (HPC).
Setting [18] is: dose: 200.0 mg/kg/injection, schedule: Q01DX009 (ip), vehicle: Klucel (hydroxypropylcellulose) (HPC).
Where [19] appears, read: dose: 400.0 mg/kg/injection, schedule: Q01DX009 (ip), vehicle: Klucel (hydroxypropylcellulose) (HPC).
Where [20] appears, read: dose: 200.0 mg/kg/injection, schedule: Q01DX001 (ip), vehicle: carboxymethylcellulose (CMC).
Where [21] appears, read: dose: 400.0 mg/kg/injection, schedule: Q01DX001 (ip), vehicle: carboxymethylcellulose (CMC).
Setting [22] is: dose: 100.0 mg/kg/injection, schedule: Q01DX001 (ip), vehicle: Klucel (hydroxypropylcellulose) (HPC).
Setting [23] is: dose: 200.0 mg/kg/injection, schedule: Q01DX001 (ip), vehicle: Klucel (hydroxypropylcellulose) (HPC).
[24] abbreviates: dose: 400.0 mg/kg/injection, schedule: Q01DX001 (ip), vehicle: Klucel (hydroxypropylcellulose) (HPC).
The mark [25] stands for this setting: dose: 200.0 mg/kg/injection, schedule: Q04DX003 (ip), vehicle: saline with Tween-80.

Consider `O=c1scc(-c2ccc(-c3ccccc3)cc2)s1`, for which the T/C is 109 % of control under setting [1], 95 % of control under setting [2] and 109 % of control under setting [3].

As to `CCCCNC(=O)C1CC2c3cccc4c3c(cn4C)CC2N(C)C1` (configuration not stated), the T/C was 100 % of control (dose: 3.12 mg/kg/injection, schedule: Q01DX009 (ip), vehicle: saline); 92 % of control (dose: 6.25 mg/kg/injection, schedule: Q01DX009 (ip), vehicle: saline); 100 % of control (dose: 12.5 mg/kg/injection, schedule: Q01DX009 (ip), vehicle: saline); 94 % of control (dose: 25.0 mg/kg/injection, schedule: Q01DX009 (ip), vehicle: saline); 101 % of control (dose: 50.0 mg/kg/injection, schedule: Q01DX009 (ip), vehicle: saline).

On to `[Cl][Pd][Cl].[NH-]C1CCCC1.[NH-]C1CCCC1`, for which the T/C is 102 % of control (dose: 6.25 mg/kg/injection, schedule: Q04DX002 (ip), vehicle: saline); 105 % of control (dose: 12.5 mg/kg/injection, schedule: Q04DX002 (ip), vehicle: saline); 97 % of control (dose: 25.0 mg/kg/injection, schedule: Q04DX002 (ip), vehicle: saline).

Consider `Nc1ncnc2c1ncn2C1SC(CO)C2OC21` (configuration not stated), for which the T/C is, setting by setting: (dose: 25.0 mg/kg/injection, schedule: Q01DX001 (ip), vehicle: carboxymethylcellulose (CMC)) 93 % of control; under setting [4], 96 % of control; under setting [5], 90 % of control; (dose: 200.0 mg/kg/injection, schedule: Q01DX005 (ip), vehicle: saline) 94 % of control.

Take `COc1ccc(C(=O)CSc2cc[o+]cc2)cc1`: the T/C under setting [6] is 95 % of control; the T/C under setting [7] was 94 % of control; the T/C under setting [8] is 95 % of control; the T/C under setting [9] is 97 % of control; the T/C under setting [10] is 104 % of control; the T/C under setting [11] is 92 % of control. Moreover, the T/C under setting [12] is 106 % of control, the T/C under setting [13] was 90 % of control and the T/C under setting [14] was 97 % of control.

For the molecule `CC(Cc1ccccc1)N1C(=O)C=CC1=O` (configuration not stated), the T/C (dose: 3.12 mg/kg/injection, schedule: Q01DX009 (ip), vehicle: Klucel (hydroxypropylcellulose) (HPC)) was 92 % of control; the T/C (dose: 6.25 mg/kg/injection, schedule: Q01DX009 (ip), vehicle: Klucel (hydroxypropylcellulose) (HPC)) was 101 % of control; the T/C (dose: 12.5 mg/kg/injection, schedule: Q01DX009 (ip), vehicle: Klucel (hydroxypropylcellulose) (HPC)) was 93 % of control and 90 % of control.

With `CC(=O)NC1COC(O)C(O)C1O` (configuration not stated), the T/C under setting [8] was 94 % of control, the T/C under setting [11] is 101 % of control and the T/C under setting [14] was 101 % of control.

In the case of `CCCCCCCCCCCCCCCCCC[Se][Se]CCCCCCCCCCCCCCCCCC`, the T/C (dose: 6.25 mg/kg/injection, schedule: Q01DX009 (ip), vehicle: saline with Tween-80) was 94 % of control; the T/C (dose: 12.5 mg/kg/injection, schedule: Q01DX009 (ip), vehicle: saline with Tween-80) is 93 % of control; the T/C (dose: 25.0 mg/kg/injection, schedule: Q01DX009 (ip), vehicle: saline with Tween-80) is 98 % of control and 89 % of control; the T/C under setting [15] is 87 % of control; the T/C under setting [16] is 86 % of control.

On to `CCCCCCCCCCC(=O)CC`, for which the T/C runs as follows: under setting [7], 102 % of control; under setting [10], 104 % of control; under setting [13], 113 % of control.

As to `Cc1ccc(N=Nc2ccc(C)cc2NC(=O)c2ccc(Cl)cc2Cl)cc1`, the T/C is, setting by setting: under setting [17], 88 % of control; under setting [18], 97 % of control; under setting [19], 89 % of control.

Consider `O=c1[nH]nc(Br)c(=O)n1C(c1ccccc1)c1ccccc1`, for which the T/C was 89 % of control (dose: 22.0 mg/kg/injection, schedule: Q01DX015 (ip), vehicle: carboxymethylcellulose (CMC)); 97 % of control (dose: 33.0 mg/kg/injection, schedule: Q01DX015 (ip), vehicle: carboxymethylcellulose (CMC)); 97 % of control and 101 % of control (dose: 44.0 mg/kg/injection, schedule: Q01DX001 (ip), vehicle: carboxymethylcellulose (CMC)); 95 % of control (dose: 50.0 mg/kg/injection, schedule: Q01DX015 (ip), vehicle: carboxymethylcellulose (CMC)); 94 % of control and 98 % of control (dose: 66.0 mg/kg/injection, schedule: Q01DX001 (ip), vehicle: carboxymethylcellulose (CMC)); 97 % of control (dose: 75.0 mg/kg/injection, schedule: Q01DX015 (ip), vehicle: carboxymethylcellulose (CMC)). Also, the T/C reads like this: (dose: 150.0 mg/kg/injection, schedule: Q01DX001 (ip), vehicle: carboxymethylcellulose (CMC)) 95 % of control and 96 % of control; under setting [20], 154 % of control; under setting [21], 96 % of control.

In the case of `CCOC(=O)c1c(/N=C/c2ccc(N(C)C)cc2)sc2c1CCCC2`, the T/C is 107 % of control under setting [1], 100 % of control under setting [2] and 104 % of control under setting [3].

On to `Cc1ccc(C(C)(O)CC(O)(C(F)(F)F)C(F)(F)F)cc1` (configuration not stated), for which the T/C reads like this: under setting [22], 104 % of control; under setting [17], 99 % of control; under setting [23], 106 % of control; under setting [18], 99 % of control; under setting [24], 96 % of control; under setting [19], 98 % of control.

In the case of `O=S1(=O)CC(O)C(Br)C1Br` (configuration not stated), the T/C reads like this: under setting [22], 96 % of control; under setting [23], 104 % of control; under setting [24], 94 % of control.

`CC(C)N=Cc1cc(Cl)ccc1O.CC(C)N=Cc1cc(Cl)ccc1O.[Co]`: the T/C is 94 % of control (dose: 50.0 mg/kg/injection, schedule: Q04DX003 (ip), vehicle: saline); 102 % of control under setting [8]; 105 % of control under setting [11].

Turning to `CCCN(CCC)C(=O)C1C2C=CC(C2)C1C(=O)N(CCC)CCC` (configuration not stated), the T/C under setting [15] was 98 % of control, the T/C under setting [25] is 111 % of control and the T/C under setting [16] is 98 % of control.

Take `CC(=O)Nc1ccc([N+](=O)[O-])c(NC(C)=O)n1`: the T/C by setting is: under setting [17], 103 % of control; under setting [15], 101 % of control; under setting [18], 100 % of control; under setting [25], 93 % of control; under setting [19], 97 % of control; under setting [16], 112 % of control.

Turning to `CC[As](=O)(O)CCCc1ccccc1`, the T/C was 106 % of control (dose: 12.5 mg/kg/injection, schedule: Q01DX001 (ip), vehicle: Klucel (hydroxypropylcellulose) (HPC)) and 109 % of control (dose: 25.0 mg/kg/injection, schedule: Q01DX001 (ip), vehicle: Klucel (hydroxypropylcellulose) (HPC)).

Consider `CC(=O)Nc1nc(C)c(CCC(C)C)c(Cl)n1`, for which the T/C reads like this: (dose: 25.0 mg/kg/injection, schedule: Q04DX002 (ip), vehicle: Klucel (hydroxypropylcellulose) (HPC)) 104 % of control; (dose: 50.0 mg/kg/injection, schedule: Q04DX002 (ip), vehicle: Klucel (hydroxypropylcellulose) (HPC)) 93 % of control; under setting [1], 105 % of control.

For the molecule `c1ccc2cc3c(ccc4cccc[n+]43)cc2c1`, the T/C (dose: 50.0 mg/kg/injection, schedule: Q01DX001 (ip), vehicle: saline) was 119 % of control.

Consider `CN(CCO)CC(O)Cn1cnc2c1c(=O)n(C)c(=O)n2C` (configuration not stated) (tested in a mixture with another compound), for which the T/C under setting [6] was 108 % of control, the T/C under setting [9] is 112 % of control and the T/C under setting [12] was 104 % of control.

`CCCO[Si](C)(C)CCl`: the T/C is, setting by setting: under setting [4], 92 % of control; under setting [5], 92 % of control; under setting [20], 92 % of control; under setting [21], 98 % of control.

The record behind these values is PubChem BioAssay AID248 (DTP/NCI, 2004).
